Test results as given in ChEMBL document CHEMBL1137477, “Preparation and in vitro anti-staphylococcal activity of novel 11-deoxy-11-hydroxyiminorifamycins” (2007).
Converted amounts (≈) assume the structure as drawn.

Columns and labels:
Type in all cases: functional
Staphylococcus aureus [1] = test: Antibacterial activity against rifamycin-sensitive Staphylococcus aureus CB190 ATCC 29213
Staphylococcus aureus [2] = test: Antibacterial activity against rifamycin-resistance Staphylococcus aureus CB372
Staphylococcus aureus [3] = test: Antibacterial activity against rifamycin-resistance Staphylococcus aureus CB370

In the case of `CO[C@H]1/C=C/O[C@@]2(C)Oc3c(C)c(O)c4c(O)c(c(/C=N/N5CCN(C)CC5)c(O)c4c3C2=O)NC(=O)/C(C)=C\C=C\[C@H](C)[C@H](O)[C@@H](C)[C@@H](O)[C@@H](C)[C@H](OC(C)=O)[C@@H]1C` [RIFAMPIN], the MIC (Staphylococcus aureus [1]) is reported as 0.008 µg/mL (≈ 0.00972 µM), the MIC (Staphylococcus aureus [2]) is reported as 16 µg/mL (≈ 19.4 µM) and the MIC (Staphylococcus aureus [3]) is reported as over 64 µg/mL.

Compound `CO[C@H]1/C=C/O[C@@]2(C)Oc3c(C)c(O)c4c(c3/C2=N/O)C(=O)C=C(NC(=O)/C(C)=C\C=C\[C@H](C)[C@H](O)[C@@H](C)[C@@H](O)[C@@H](C)[C@H](OC(C)=O)[C@@H]1C)C4=O` has an MIC (Staphylococcus aureus [1]) of 0.002 µg/mL (≈ 0.00281 µM), an MIC (Staphylococcus aureus [2]) of 0.5 µg/mL (≈ 0.703 µM) and an MIC (Staphylococcus aureus [3]) of 32 µg/mL (≈ 45 µM).

With `CO[C@H]1/C=C/O[C@@]2(C)Oc3c(C)c(O)c4c(=O)c(c5oc6cc(N7CCN(C(C)C)CC7)cc(O)c6nc-5c4c3/C2=N/O)NC(=O)/C(C)=C\C=C\[C@H](C)[C@H](O)[C@@H](C)[C@@H](O)[C@@H](C)[C@H](OC(C)=O)[C@@H]1C` the MIC (Staphylococcus aureus [1]) was 0.008 µg/mL (≈ 0.00849 µM), the MIC (Staphylococcus aureus [2]) was 1 µg/mL (≈ 1.06 µM) and the MIC (Staphylococcus aureus [3]) was 32 µg/mL (≈ 34 µM).

In the case of `CO[C@H]1/C=C/O[C@@]2(C)Oc3c(C)c(O)c4c(=O)c(c5oc6cc(N7CCN(CC(C)C)CC7)ccc6nc-5c4c3/C2=N/O)NC(=O)/C(C)=C\C=C\[C@H](C)[C@H](O)[C@@H](C)[C@@H](O)[C@@H](C)[C@H](OC(C)=O)[C@@H]1C`, the MIC (Staphylococcus aureus [1]) is reported as 0.004 µg/mL (≈ 0.00425 µM), the MIC (Staphylococcus aureus [2]) is reported as 0.5 µg/mL (≈ 0.532 µM) and the MIC (Staphylococcus aureus [3]) is reported as 8 µg/mL (≈ 8.51 µM).

`CO[C@H]1/C=C/O[C@@]2(C)Oc3c(C)c(O)c4c(=O)c(c5oc6cc(N7CCN(CC(C)C)CC7)cc(O)c6nc-5c4c3/C2=N/O)NC(=O)/C(C)=C\C=C\[C@H](C)[C@H](O)[C@@H](C)[C@@H](O)[C@@H](C)[C@H](OC(C)=O)[C@@H]1C` gave an MIC (Staphylococcus aureus [1]) of 0.004 µg/mL (≈ 0.00418 µM), an MIC (Staphylococcus aureus [2]) of 2 µg/mL (≈ 2.09 µM) and an MIC (Staphylococcus aureus [3]) of 32 µg/mL (≈ 33.5 µM).

`CO[C@H]1/C=C/O[C@@]2(C)Oc3c(C)c(O)c4c(=O)c(c5oc6cc(N7CCN(C)CC7)cc(C)c6nc-5c4c3/C2=N/O)NC(=O)/C(C)=C\C=C\[C@H](C)[C@H](O)[C@@H](C)[C@@H](O)[C@@H](C)[C@H](OC(C)=O)[C@@H]1C` was tested, and the MIC (Staphylococcus aureus [1]) was 0.004 µg/mL (≈ 0.00439 µM), the MIC (Staphylococcus aureus [2]) was 1 µg/mL (≈ 1.1 µM) and the MIC (Staphylococcus aureus [3]) was 16 µg/mL (≈ 17.5 µM).

With `CO[C@H]1/C=C/O[C@@]2(C)Oc3c(C)c(O)c4c(c3C2=O)C(=O)C=C(NC(=O)/C(C)=C\C=C\[C@H](C)[C@H](O)[C@@H](C)[C@@H](O)[C@@H](C)[C@H](OC(C)=O)[C@@H]1C)C4=O` [RIFAMYCIN S] the MIC (Staphylococcus aureus [1]) was 0.016 µg/mL (≈ 0.023 µM), the MIC (Staphylococcus aureus [2]) was 4 µg/mL (≈ 5.75 µM) and the MIC (Staphylococcus aureus [3]) was over 64 µg/mL.

With `CO[C@H]1/C=C/O[C@@]2(C)Oc3c(C)c(O)c4c(=O)c(c5oc6cc(N7CCN(CC(C)C)CC7)cc(C)c6nc-5c4c3/C2=N/O)NC(=O)/C(C)=C\C=C\[C@H](C)[C@H](O)[C@@H](C)[C@@H](O)[C@@H](C)[C@H](OC(C)=O)[C@@H]1C` the MIC (Staphylococcus aureus [1]) was 0.008 µg/mL (≈ 0.00838 µM), the MIC (Staphylococcus aureus [2]) was 4 µg/mL (≈ 4.19 µM) and the MIC (Staphylococcus aureus [3]) was over 64 µg/mL.

Compound `CO[C@H]1/C=C/O[C@@]2(C)Oc3c(C)c(O)c4c(=O)c(c5oc6cc(N7CCN(CC8CCCCC8)CC7)ccc6nc-5c4c3/C2=N/O)NC(=O)/C(C)=C\C=C\[C@H](C)[C@H](O)[C@@H](C)[C@@H](O)[C@@H](C)[C@H](OC(C)=O)[C@@H]1C` has an MIC (Staphylococcus aureus [1]) of 0.008 µg/mL (≈ 0.00816 µM), an MIC (Staphylococcus aureus [2]) of 2 µg/mL (≈ 2.04 µM) and an MIC (Staphylococcus aureus [3]) of 16 µg/mL (≈ 16.3 µM).

Compound `CO[C@H]1/C=C/O[C@@]2(C)Oc3c(C)c(O)c4c(=O)c(c5oc6cc(N7CCN(CC8CCN(C)CC8)CC7)cc(O)c6nc-5c4c3/C2=N/O)NC(=O)/C(C)=C\C=C\[C@H](C)[C@H](O)[C@@H](C)[C@@H](O)[C@@H](C)[C@H](OC(C)=O)[C@@H]1C` has an MIC (Staphylococcus aureus [1]) of 0.13 µg/mL (≈ 0.129 µM), an MIC (Staphylococcus aureus [2]) of 4 µg/mL (≈ 3.96 µM) and an MIC (Staphylococcus aureus [3]) of 32 µg/mL (≈ 31.6 µM).

Work on `CO[C@H]1/C=C/O[C@@]2(C)Oc3c(C)c(O)c4c(=O)c(c5oc6cc(N7CCN(C(C)C)CC7)ccc6nc-5c4c3/C2=N/O)NC(=O)/C(C)=C\C=C\[C@H](C)[C@H](O)[C@@H](C)[C@@H](O)[C@@H](C)[C@H](OC(C)=O)[C@@H]1C` yielded an MIC (Staphylococcus aureus [1]) of 0.0005 µg/mL (≈ 0.00054 µM), an MIC (Staphylococcus aureus [2]) of 0.12 µg/mL (≈ 0.13 µM) and an MIC (Staphylococcus aureus [3]) of 8 µg/mL (≈ 8.64 µM).

`CO[C@H]1/C=C/O[C@@]2(C)Oc3c(C)c(O)c4c(=O)c(c5oc6cc(N7CCN(C)CC7)cc(O)c6nc-5c4c3/C2=N/O)NC(=O)/C(C)=C\C=C\[C@H](C)[C@H](O)[C@@H](C)[C@@H](O)[C@@H](C)[C@H](OC(C)=O)[C@@H]1C` showed an MIC (Staphylococcus aureus [1]) of 0.004 µg/mL (≈ 0.00438 µM), an MIC (Staphylococcus aureus [2]) of 1 µg/mL (≈ 1.09 µM) and an MIC (Staphylococcus aureus [3]) of 32 µg/mL (≈ 35 µM).

For `CCCCN1CCN(c2cc(O)c3nc4c5c6c7c(C)c(O)c5c(=O)c(c-4oc3c2)NC(=O)/C(C)=C\C=C\[C@H](C)[C@H](O)[C@@H](C)[C@@H](O)[C@@H](C)[C@H](OC(C)=O)[C@H](C)[C@@H](OC)/C=C/O[C@@](C)(O7)/C6=N\O)CC1`, the MIC (Staphylococcus aureus [1]) was 0.004 µg/mL (≈ 0.00418 µM), the MIC (Staphylococcus aureus [2]) was 2 µg/mL (≈ 2.09 µM) and the MIC (Staphylococcus aureus [3]) was 16 µg/mL (≈ 16.7 µM).

`CO[C@H]1/C=C/O[C@@]2(C)Oc3c(C)c(O)c4c(=O)c(c5oc6cc(N7CCN(CC(C)C)CC7)cc(O)c6nc-5c4c3C2=O)NC(=O)/C(C)=C\C=C\[C@H](C)[C@H](O)[C@@H](C)[C@@H](O)[C@@H](C)[C@H](OC(C)=O)[C@@H]1C` [RIFALAZIL] was tested, and the MIC (Staphylococcus aureus [1]) was 0.004 µg/mL (≈ 0.00425 µM), the MIC (Staphylococcus aureus [2]) was 2 µg/mL (≈ 2.13 µM) and the MIC (Staphylococcus aureus [3]) was 32 µg/mL (≈ 34 µM).

For `CO[C@H]1/C=C/O[C@@]2(C)Oc3c(C)c(O)c4c(O)c(cc(O)c4c3C2=O)NC(=O)/C(C)=C\C=C\[C@H](C)[C@H](O)[C@@H](C)[C@@H](O)[C@@H](C)[C@H](OC(C)=O)[C@@H]1C` [RIFAMYCIN], the MIC (Staphylococcus aureus [1]) was 0.016 µg/mL (≈ 0.0229 µM), the MIC (Staphylococcus aureus [2]) was 2 µg/mL (≈ 2.87 µM) and the MIC (Staphylococcus aureus [3]) was over 64 µg/mL.

`CO[C@H]1/C=C/O[C@@]2(C)Oc3c(C)c(O)c4c(=O)c(c5oc6cc(N7CCN(CC8CCCCC8)CC7)cc(O)c6nc-5c4c3/C2=N/O)NC(=O)/C(C)=C\C=C\[C@H](C)[C@H](O)[C@@H](C)[C@@H](O)[C@@H](C)[C@H](OC(C)=O)[C@@H]1C` was tested, and the MIC (Staphylococcus aureus [1]) was 0.008 µg/mL (≈ 0.00803 µM), the MIC (Staphylococcus aureus [2]) was 8 µg/mL (≈ 8.03 µM) and the MIC (Staphylococcus aureus [3]) was 8 µg/mL (≈ 8.03 µM).

Compound `CCN1CCN(c2cc(O)c3nc4c5c6c7c(C)c(O)c5c(=O)c(c-4oc3c2)NC(=O)/C(C)=C\C=C\[C@H](C)[C@H](O)[C@@H](C)[C@@H](O)[C@@H](C)[C@H](OC(C)=O)[C@H](C)[C@@H](OC)/C=C/O[C@@](C)(O7)/C6=N\O)CC1` has an MIC (Staphylococcus aureus [1]) of 0.008 µg/mL (≈ 0.00862 µM), an MIC (Staphylococcus aureus [2]) of 2 µg/mL (≈ 2.16 µM) and an MIC (Staphylococcus aureus [3]) of 32 µg/mL (≈ 34.5 µM).
